Test results taken from the supplement of paper PMC10307832.

How the values were obtained:
Experiment in all cases: relative viability (nuclei count vs DMSO), 5 days (fraction); higher = more cells survive
Ruboxistaurin = compound: CN(C)C[C@@H]1CCn2cc(c3ccccc32)C2=C(C(=O)NC2=O)c2cn(c3ccccc23)CCO1 [Ruboxistaurin]
How it was run: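 In 1536-well plates, lung cancer cell lines rested overnight at 37 °C before five library-drug doses (not always all listed), √10 apart, were pinned onto vehicle-anchored plates. Nuclei were counted with MetaXpress from 4× Hoechst images taken after 5 days without medium change. Viability compares treated-well with vehicle-well nuclei as a median over plates, and plates needed control CV below 25% plus at least one doubling to pass.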

[1] = compound: CN(C)C[C@@H]1CCn2cc(c3ccccc32)C2=C(C(=O)NC2=O)c2cn(c3ccccc23)CCO1 [Ruboxistaurin] + CC1(C)CCC(c2ccc(Cl)cc2)=C(CN2CCN(c3ccc(C(=O)NS(=O)(=O)c4ccc(N[C@H](CCN5CCOCC5)CSc5ccccc5)c(S(=O)(=O)C(F)(F)F)c4)cc3)CC2)C1 [Navitoclax] (partner 0.5 µM)
How it was run: (§1)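 A single step with final 0.05% Triton X-100, 1% formaldehyde and 1 ug/ml Hoechst fixed the cells and stained nuclei 5 days after treatment. Lung cancer cell lines in 1536-well plates had been treated by pin tool the day after seeding with one drug alone or a fixed anchor-drug dose plus five library-drug doses (not always all listed) in √10 steps, and nuclei were counted on 4× images. Relative viability is the ratio of nuclei in treated wells to nuclei in vehicle wells, taken as the median of duplicate plates.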

[2] = compound: CN(C)C[C@@H]1CCn2cc(c3ccccc32)C2=C(C(=O)NC2=O)c2cn(c3ccccc23)CCO1 [Ruboxistaurin] + COc1cc2c(Oc3ccc(NC(=O)C4(C(=O)Nc5ccc(F)cc5)CC4)cc3F)ccnc2cc1OCCCN1CCOCC1 [Foretinib] (partner 0.25 µM)
How it was run: as §1

[3] = compound: CN(C)C[C@@H]1CCn2cc(c3ccccc32)C2=C(C(=O)NC2=O)c2cn(c3ccccc23)CCO1 [Ruboxistaurin] + CS(=O)(=O)CCNCc1ccc(-c2ccc3ncnc(Nc4ccc(OCc5cccc(F)c5)c(Cl)c4)c3c2)o1 [Lapatinib] (partner 2 µM)
How it was run: as §1

[4] = compound: CN(C)C[C@@H]1CCn2cc(c3ccccc32)C2=C(C(=O)NC2=O)c2cn(c3ccccc23)CCO1 [Ruboxistaurin] + CS(=O)(=O)N1CCN(Cc2cc3nc(-c4cccc5[nH]ncc45)nc(N4CCOCC4)c3s2)CC1 [Pictilisib] (partner 1 µM)
How it was run: as §1

[5] = compound: CN(C)C[C@@H]1CCn2cc(c3ccccc32)C2=C(C(=O)NC2=O)c2cn(c3ccccc23)CCO1 [Ruboxistaurin] + C[C@@H](Oc1cc(-c2cnn(C3CCNCC3)c2)cnc1N)c1c(Cl)ccc(F)c1Cl [Crizotinib] (partner 1 µM)
How it was run: as §1

[6] = compound: CN(C)C[C@@H]1CCn2cc(c3ccccc32)C2=C(C(=O)NC2=O)c2cn(c3ccccc23)CCO1 [Ruboxistaurin] + C[C@]1(O)C[C@@H](c2nc(-c3ccc4ccc(-c5ccccc5)nc4c3)c3c(N)nccn32)C1 [Linsitinib] (partner 1 µM)
How it was run: as §1

[7] = compound: CN(C)C[C@@H]1CCn2cc(c3ccccc32)C2=C(C(=O)NC2=O)c2cn(c3ccccc23)CCO1 [Ruboxistaurin] + Cc1nc(NC(=O)N2CCC[C@H]2C(N)=O)sc1-c1ccnc(C(C)(C)C(F)(F)F)c1 [Alpelisib] (partner 2 µM)
How it was run: as §1

[8] = compound: CN(C)C[C@@H]1CCn2cc(c3ccccc32)C2=C(C(=O)NC2=O)c2cn(c3ccccc23)CCO1 [Ruboxistaurin] + N=C(N)NC(=N)NCCc1ccccc1 [Phenformin] (partner 250 µM)
How it was run: as §1

[9] = compound: CN(C)C[C@@H]1CCn2cc(c3ccccc32)C2=C(C(=O)NC2=O)c2cn(c3ccccc23)CCO1 [Ruboxistaurin] + Nc1ncn([C@H]2C[C@H](O)[C@@H](CO)O2)c(=O)n1 [Decitabine] (partner 2 µM)
How it was run: as §1

Ruboxistaurin + Olaparib = compound: CN(C)C[C@@H]1CCn2cc(c3ccccc32)C2=C(C(=O)NC2=O)c2cn(c3ccccc23)CCO1 [Ruboxistaurin] + O=C(c1cc(Cc2n[nH]c(=O)c3ccccc23)ccc1F)N1CCN(C(=O)C2CC2)CC1 [Olaparib] (partner 8 µM)
How it was run: as §1

A549 gave a relative viability (Ruboxistaurin; 0.08 µM) of 1.05, a relative viability (Ruboxistaurin; 0.8 µM) of 0.9 and a relative viability (Ruboxistaurin; 2.53 µM) of 1. It also gave a relative viability (Ruboxistaurin; 8 µM) of 0.83, a relative viability ([1]; first compound 0.08 µM) of 1.23 and a relative viability ([1]; first compound 0.8 µM) of 1.18. It also gave a relative viability ([1]; first compound 2.53 µM) of 1.16, a relative viability ([1]; first compound 8 µM) of 0.99 and a relative viability ([2]; first compound 0.08 µM) of 1.04. For the same cell line, the relative viability ([2]; first compound 0.8 µM) was 0.935, the relative viability ([2]; first compound 2.53 µM) was 1.06 and the relative viability ([2]; first compound 8 µM) was 0.962. The relative viability ([3]; first compound 0.08 µM) was 1.03, the relative viability ([3]; first compound 0.8 µM) was 0.838 and the relative viability ([3]; first compound 2.53 µM) was 0.866. The relative viability ([3]; first compound 8 µM) was 0.753, the relative viability ([4]; first compound 0.08 µM) was 0.567 and the relative viability ([4]; first compound 0.8 µM) was 0.423. The relative viability ([4]; first compound 2.53 µM) was 0.385, the relative viability ([4]; first compound 8 µM) was 0.223 and the relative viability ([5]; first compound 0.08 µM) was 0.751. For the same cell line, the relative viability ([5]; first compound 0.8 µM) was 0.631, the relative viability ([5]; first compound 2.53 µM) was 0.862 and the relative viability ([5]; first compound 8 µM) was 0.679. For the same cell line, the relative viability ([6]; first compound 0.08 µM) was 0.685, the relative viability ([6]; first compound 0.8 µM) was 0.562 and the relative viability ([6]; first compound 2.53 µM) was 0.61. The relative viability ([6]; first compound 8 µM) was 0.458, the relative viability ([7]; first compound 0.08 µM) was 0.75 and the relative viability ([7]; first compound 0.8 µM) was 0.562. For the same cell line, the relative viability ([7]; first compound 2.53 µM) was 0.944, the relative viability ([7]; first compound 8 µM) was 0.501 and the relative viability ([8]; first compound 0.08 µM) was 0.199. The relative viability ([8]; first compound 0.8 µM) was 0.162, the relative viability ([8]; first compound 2.53 µM) was 0.221 and the relative viability ([8]; first compound 8 µM) was 0.175. The relative viability ([9]; first compound 0.08 µM) was 0.264, the relative viability ([9]; first compound 0.8 µM) was 0.217 and the relative viability ([9]; first compound 2.53 µM) was 0.307. It also gave a relative viability ([9]; first compound 8 µM) of 0.305, a relative viability (Ruboxistaurin + Olaparib; first compound 0.08 µM) of 0.27 and a relative viability (Ruboxistaurin + Olaparib; first compound 0.8 µM) of 0.273. For the same cell line, the relative viability (Ruboxistaurin + Olaparib; first compound 2.53 µM) was 0.415 and the relative viability (Ruboxistaurin + Olaparib; first compound 8 µM) was 0.381.
